# Measured values taken from patent US20240270692A1, “S(+) FORM OF 4-(2,4-DIFLUOROPHENYL)-2-(1H-INDOL-3-YL)-4-OXO-BUTANOIC ACID” (TOHOKU UNIVERSITY, priority 2021, published 2024).
# Tests used:
# HBlEpC cell line = assay: Cytotoxicity evaluation 1: viable cell level by WST-8 assay; type: cell-based, human; conditions: 30 nM to 1 mM, cultured 48 hours
# Protocol: Hereinafter, the present invention will be described more specifically with reference to Examples, but the technical scope of the present invention is not limited to these Examples. The INS-1E cell line was cultured in an incubator (37° C., 21% O2, 5% CO2) in the presence of RPMI-1640 Medium (manufactured by GIBCO) containing 11.1 mM glucose, 10% FBS, 1 mM sodium pyruvate, 10 mM HEPES, 2 mM glutamine, 50 μM β-mercaptoethanol, penicillin at 100 U/mL, and streptomycin at 100 μg/mL (hereinafter simply referred to as “RPMI-1640 Medium”). […]
# An HBlEpC cell line (manufactured by Cell Application) was seeded in a 96-well plate at 2×10^3 cells per well, 0.1% DMSO, which is a solvent for the compounds, or various concentrations (30 NM, 100 nM, 300 nM, 1 μM, 3 μM, 10 μM, 30 μM, 100 μM, 300 μM, or 1 mM) of three compounds (racemic form of MA5, S(+) form of MA5, or R(−) form of MA5) were added to the HBlEpC culture medium, and the cells were cultured for 48 hours. […] The viable cell level (viable cell count level) after culture was measured by a WST-8 assay using Cell Count Reagent SF (manufactured by Nacalai Tesque, Inc.).
# [1] = molecular target: T1, nicotinamide phosphoribosyltransferase (Nampt) (Homo sapiens, UniProt P43490); assay: Nampt binding test (Octet K2); conditions: for binding to Nampt: Octet K2, biotin Nampt
# T1 construct: biotin (biotinylated protein)
# Protocol: The binding of the S(+) form of MA5 and the R(−) form of MA5 to nicotinamide phosphoribosyltransferase (Nampt), which is a key enzyme of the mammalian NAD^+ synthesis system, was measured by using Octet K2.
# A 0.01% DDM PBS solution was prepared as a measurement buffer. 1 μL of biotin Nampt was added to 1000 μL of the measurement buffer. This was diluted 2-fold to obtain a 0.4 ng/μL ligand solution. A DMSO solution of a 100 mM MA5 S(+) form was diluted from 300 µM to 1000 μM, a DMSO solution of a 100 mM MA5 R(−) form was diluted from 500 μM to 1200 μM, and the diluted solutions were each used as an analyte solution. 200 μL each of the measurement buffer, a 1 μM biotin solution, a ligand solution, a 100 μM biocytin solution, and the analyte solution were added to a 96-well plate, and the plate was set in Octet K2 to carry out the measurement. Data were analyzed by using the accompanying software. Kd values were represented graphically with Prism 9 by using the concentrations of the analyte solution and the numerical values of Req (nm) calculated by the analysis.
# T1 sequence (P43490 whole entry, species assumed): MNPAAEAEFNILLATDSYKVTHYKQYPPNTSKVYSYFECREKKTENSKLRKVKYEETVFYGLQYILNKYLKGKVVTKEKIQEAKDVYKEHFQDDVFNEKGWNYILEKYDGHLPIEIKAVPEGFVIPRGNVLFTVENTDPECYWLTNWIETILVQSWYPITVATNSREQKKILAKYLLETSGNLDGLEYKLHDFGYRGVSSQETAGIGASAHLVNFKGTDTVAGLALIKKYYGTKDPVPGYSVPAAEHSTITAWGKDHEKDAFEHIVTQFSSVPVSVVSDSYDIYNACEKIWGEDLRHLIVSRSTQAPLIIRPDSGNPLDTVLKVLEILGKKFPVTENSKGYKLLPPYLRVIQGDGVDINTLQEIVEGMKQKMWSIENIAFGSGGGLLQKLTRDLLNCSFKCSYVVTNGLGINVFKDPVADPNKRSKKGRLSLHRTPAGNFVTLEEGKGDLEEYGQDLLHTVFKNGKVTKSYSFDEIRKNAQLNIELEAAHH
"Kd ([1]; NAMPT, Octet K2) [µM]",binding to Nampt [1],binding to Nampt ([1]; listed as R(−) form),Structure (SMILES),"viability of the cells (viable cell level, OD450) (HBlEpC cell line)"
58.9,binds to Nampt,–,"O=C(C[C@H](C(=O)O)c1c[nH]c2ccccc12)c1ccc(F)cc1F [S(+) form of MA5, 4-(2,4-difluorophenyl)-2-(1H-indol-3-yl)-4-oxo-butanoic acid]",the viability of the cells was higher with the S(+) form of MA5 than with the R(−) form of MA5
–,did not bind to NAMPT,does not bind to Nampt,"O=C(C[C@@H](C(=O)O)c1c[nH]c2ccccc12)c1ccc(F)cc1F [R(−) form of MA5, 4-(2,4-difluorophenyl)-2-(1H-indol-3-yl)-4-oxo-butanoic acid]",the viability of the cells was higher than when the HBlEpC cell line was cultured in the presence of the racemic form of MA5
